From PMC11202169, “A Novel Fluorescence-Based Microplate Assay for High-Throughput Screening of hSULT1As Inhibitors” (Biosensors, 2024)
Where a name gives a salt, the structure may show the parent alone.

Legend:
hSULT1A2 = molecular target: T1, hSULT1A2 (Homo sapiens, UniProt P50226); assay: hSULT1As reaction phenotyping assay (HPLC), hSULT1A2; assay type: biochemical; conditions: for Sulfation rate: peak area of the sulfated metabolite detected by HPLC, hSULT1A2: fluorophore 10 μM, PAPS 200 μM, 1 h, 37 °C
T1 construct: 6-histidine tag (N); TEV site (N); made in house; host or cells: Escherichia coli BL21 (DE3), pET29a(+)
T1 sequence (P50226 whole entry): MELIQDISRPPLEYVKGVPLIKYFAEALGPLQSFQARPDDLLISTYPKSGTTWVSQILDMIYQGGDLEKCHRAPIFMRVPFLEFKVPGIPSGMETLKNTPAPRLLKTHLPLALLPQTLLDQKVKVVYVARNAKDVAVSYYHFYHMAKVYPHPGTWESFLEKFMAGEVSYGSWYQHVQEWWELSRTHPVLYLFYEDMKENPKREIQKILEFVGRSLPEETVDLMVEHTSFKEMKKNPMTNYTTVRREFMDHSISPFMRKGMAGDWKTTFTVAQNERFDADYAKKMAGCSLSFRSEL
Procedure: (§1) The incubation system consisted of Tris-HCl buffer (pH 7.4, 50 mM), MgCl2 (5 mM), DTT (200 μM), recombinant hSULT1As (29 pmol), and each fluorophore or 4-HN derivative (10 μM). After pre-incubation at 37 °C for 3 min, the reaction was initiated by adding an excess of PAPS (200 μM). Following 1 h incubation, the reaction was terminated with the addition of an equal volume of ice-cold acetonitrile. After centrifugation at 20,000× g for 20 min at 4 °C, the supernatant was collected for HPLC analysis. The mobile phase consisted of 10 mM aqueous ammonium acetate (A) and acetonitrile (B) at a flow rate of 0.4 mL/min. Gradient elution was performed under the following conditions: 0–2.0 min, 5% B; 2.0–10.0 min, 5–95% B; 10.0−12.0 min, 95% B; 12.0–12.5 min, 95–5% B; and 12.5–15.0 min, 5% B.

hSULT1A1 = molecular target: T2, hSULT1A1 (Homo sapiens, UniProt P50225); assay: hSULT1As reaction phenotyping assay (HPLC), hSULT1A1; assay type: biochemical; conditions: for Sulfation rate: peak area of the sulfated metabolite detected by HPLC, hSULT1A1: fluorophore 10 μM, PAPS 200 μM, 1 h, 37 °C
T2 construct: 6-histidine tag (N); TEV site (N); made in house; host or cells: Escherichia coli BL21 (DE3), pET29a(+)
T2 sequence (P50225 whole entry): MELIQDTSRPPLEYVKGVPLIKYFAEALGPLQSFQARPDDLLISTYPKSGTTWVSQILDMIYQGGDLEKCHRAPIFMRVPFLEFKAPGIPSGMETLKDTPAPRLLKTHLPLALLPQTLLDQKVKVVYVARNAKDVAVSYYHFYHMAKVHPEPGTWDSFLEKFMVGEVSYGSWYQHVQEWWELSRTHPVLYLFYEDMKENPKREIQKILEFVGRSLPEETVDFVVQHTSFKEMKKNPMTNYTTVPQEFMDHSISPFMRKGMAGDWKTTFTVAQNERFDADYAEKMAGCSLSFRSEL
Procedure: as §1

hSULT1A3 = molecular target: T3, hSULT1A3 (Homo sapiens, UniProt P0DMM9); assay: hSULT1As reaction phenotyping assay (HPLC), hSULT1A3; assay type: biochemical; conditions: fluorophore 10 μM, PAPS 200 μM, 1 h, 37 °C
T3 construct: 6-histidine tag (N); TEV site (N); made in house; host or cells: Escherichia coli BL21 (DE3), pET29a(+)
T3 sequence (P0DMM9 whole entry): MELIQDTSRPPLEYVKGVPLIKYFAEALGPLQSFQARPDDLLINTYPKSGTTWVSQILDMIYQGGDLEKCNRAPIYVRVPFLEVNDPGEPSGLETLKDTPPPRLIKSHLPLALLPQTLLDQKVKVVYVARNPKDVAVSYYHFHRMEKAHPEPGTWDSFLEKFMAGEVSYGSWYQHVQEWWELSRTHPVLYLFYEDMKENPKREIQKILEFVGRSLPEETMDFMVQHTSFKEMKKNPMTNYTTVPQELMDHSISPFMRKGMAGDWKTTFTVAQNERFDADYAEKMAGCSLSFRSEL
Procedure: as §1

[1] = Fluorescence quantum yield; assay type: physicochemical; conditions: physiological conditions; standard quinine sulfate (Φ = 0.55)
Procedure: The fluorescence quantum yield is defined as the ratio of the number of photons emitted to the number of photons absorbed, which is a key parameter in fluorescence spectroscopy that describes the efficiency of the fluorescence process. The fluorescence quantum yields (Φ) of HN-241 and HN-241 sulfate were measured using quinine sulfate in 50 mM aqueous H2SO4 (Φ = 0.55) as the standard, and calculated according to the following Equation (1). (1) Yu=Ys × Fu × As/Fs × Au
“A” represents the absorbance at the excitation wavelength, “F” denotes the integral fluorescence intensity, and the subscripts “s” and “u” refer to the standard and sample, respectively.

hSULT1As = assay: O-sulfation and spectroscopic changes with hSULT1As (statements for all isoforms together); assay type: biochemical, human; conditions: substrate 10 μM, all tested hSULT1A isozymes
Procedure: as §1
The spectroscopic changes in these fluorophores following O-sulfation were investigated. The incubation system was the same as that used in Section 2.3. The emission spectra of eight fluorophores in the presence and absence of three hSULT1A isoforms were determined using BioTek Synergy H1.

| Compound | Sulfation rate: peak area of the sulfated metabolite detected by HPLC, hSULT1A2 (hSULT1A2) | Sulfation rate: peak area of the sulfated metabolite detected by HPLC, hSULT1A1 (hSULT1A1) | O-sulfation by hSULT1As (in words) (hSULT1As) | other results |
| --- | --- | --- | --- | --- |
| CC1(C)OC(=C(C#N)C#N)C(C#N)=C1/C=C/c1cc2ccc(O)cc2oc1=O [fluorophore E] | +++ (“++” and “+++” denote ranges from 10,000 to 50,000, and greater than 50,000, respectively) | + (“+” shows the peak area of the sulfated metabolites of each fluorophore detected by HPLC, ranging from 0 to 10,000) | – | Sulfation rate: peak area of the sulfated metabolite detected by HPLC, hSULT1A3 (hSULT1A3): +++ (“++” and “+++” denote ranges from 10,000 to 50,000, and greater than 50,000, respectively) |
| O=c1ccc2nc3ccc(O)cc3oc-2c1 [fluorophore A] | + (“+” shows the peak area of the sulfated metabolites of each fluorophore detected by HPLC, ranging from 0 to 10,000) | ++ (“++” and “+++” denote ranges from 10,000 to 50,000, and greater than 50,000, respectively) | – | – |
| CC1(C)OC(=C(C#N)C#N)C(C#N)=C1/C=C/c1ccc2cc(O)ccc2c1 [fluorophore F] | + (“+” shows the peak area of the sulfated metabolites of each fluorophore detected by HPLC, ranging from 0 to 10,000) | +++ (“++” and “+++” denote ranges from 10,000 to 50,000, and greater than 50,000, respectively) | – | – |
| Cc1ccc(NC(=O)CCCN2C(=O)c3cccc4c(O)ccc(c34)C2=O)cc1 [HN-388] | – | – | – | O-sulfation in hSULT1A2 (in words) (hSULT1A2; 4-HN derivative 10 μM): scarcely metabolized; O-sulfation in hSULT1A1 (in words) (hSULT1A1; 4-HN derivative 10 μM): rapidly metabolized |
| CCN1C(=O)c2cccc3c(OS(=O)(=O)O)ccc(c23)C1=O [HN-241 sulfate] | – | – | – | Fluorescence quantum yield (Φ) [1]: 0.86 |
| CC[n+]1ccc(/C=C/c2ccc(-c3ccc(O)cc3)s2)c2ccccc21 [fluorophore H] | ++ (“++” and “+++” denote ranges from 10,000 to 50,000, and greater than 50,000, respectively) | +++ (“++” and “+++” denote ranges from 10,000 to 50,000, and greater than 50,000, respectively) | highest O-sulfation rate | Sulfation rate: peak area of the sulfated metabolite detected by HPLC, hSULT1A3 (hSULT1A3): +++ (“++” and “+++” denote ranges from 10,000 to 50,000, and greater than 50,000, respectively) |
| CN(C)CCN1C(=O)c2cccc3c(O)ccc(c23)C1=O [HN-283] | – | – | very slow O-sulfation rates | – |
| N#CC(C#N)=C1C=C(/C=C/c2ccc(O)cc2)Oc2ccccc21 [fluorophore D] | ++ (“++” and “+++” denote ranges from 10,000 to 50,000, and greater than 50,000, respectively) | +++ (“++” and “+++” denote ranges from 10,000 to 50,000, and greater than 50,000, respectively) | – | – |
| CCCCN1C(=O)c2cccc3c(O)ccc(c23)C1=O [fluorophore B, 4-hydroxy-N-butyl-1,8-naphthalimide] | ++ (“++” and “+++” denote ranges from 10,000 to 50,000, and greater than 50,000, respectively) | ++ (“++” and “+++” denote ranges from 10,000 to 50,000, and greater than 50,000, respectively) | – | Sulfation rate: peak area of the sulfated metabolite detected by HPLC, hSULT1A3 (hSULT1A3): ++ (“++” and “+++” denote ranges from 10,000 to 50,000, and greater than 50,000, respectively) |
| O=C(O)CCCN1C(=O)c2cccc3c(O)ccc(c23)C1=O [HN-299] | – | – | very slow O-sulfation rates | – |
| O=C1c2cccc3c(O)ccc(c23)C(=O)N1CCc1ccc(F)cc1 [HN-335] | – | – | very slow O-sulfation rates | – |
| O=C1c2cccc3c(O)ccc(c23)C(=O)N1CCc1ccccc1 [HN-317] | – | – | very slow O-sulfation rates | – |
| CC1=[N+]2C(=C(c3ccc(O)cc3)c3ccc(C)n3[B-]2(F)F)C=C1 [fluorophore C] | – | – | could not be sulfated | – |
| CCCCN1C(=O)c2cccc3c4c(cc(c23)C1=O)C(C)(C)C(/C=C/c1ccc(O)cc1)=N4 [fluorophore G] | – | – | could not be sulfated | – |
